Reference: patent US20230135635A1, “INHIBITORS OF ULK1/2 AND METHODS OF USING SAME” (SALK INSTITUTE FOR BIOLOGICAL STUDIES, priority 2020, published 2023)

Target: T1, recombinant human ULK1 protein (1-649) (Homo sapiens, UniProt O75385)
T1 construct: recombinant human ULK1 protein (1-649, SignalChem #U01-11G); purchased SignalChem U01-11G
T1 sequence (O75385 1-649): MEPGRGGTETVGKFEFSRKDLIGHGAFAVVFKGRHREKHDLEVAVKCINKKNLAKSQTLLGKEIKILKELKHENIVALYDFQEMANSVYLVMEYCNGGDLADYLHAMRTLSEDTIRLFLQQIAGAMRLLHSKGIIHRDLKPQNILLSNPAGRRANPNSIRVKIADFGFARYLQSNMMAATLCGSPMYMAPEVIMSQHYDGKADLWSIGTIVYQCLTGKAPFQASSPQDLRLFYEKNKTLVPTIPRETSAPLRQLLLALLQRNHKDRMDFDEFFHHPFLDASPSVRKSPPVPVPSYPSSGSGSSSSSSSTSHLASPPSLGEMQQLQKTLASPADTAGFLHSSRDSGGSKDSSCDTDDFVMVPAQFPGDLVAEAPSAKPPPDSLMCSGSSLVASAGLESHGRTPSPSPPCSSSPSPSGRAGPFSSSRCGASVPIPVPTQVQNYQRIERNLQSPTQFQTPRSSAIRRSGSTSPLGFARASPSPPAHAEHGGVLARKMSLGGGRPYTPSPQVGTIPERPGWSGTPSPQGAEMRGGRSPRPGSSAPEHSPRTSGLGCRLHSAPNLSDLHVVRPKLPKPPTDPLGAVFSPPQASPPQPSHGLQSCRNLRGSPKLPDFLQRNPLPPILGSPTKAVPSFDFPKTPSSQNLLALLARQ
Test: ULK1 inhibition assay (ADP Glo)
Type: biochemical
Conditions: Table 1; 25 uM ATP, MBP substrate, one hour
Protocol: Illustrative compounds of Formula I and related analogs are shown in Table 1 (along with their respective IC50 values for ULK1 inhibition assays). For ADP Glo assay, IC50s are represented nM, with A representing IC50<1 nM, B representing 10 nM>IC50>1 nM, and C representing IC50>10 nM. NT indicates the compound was not tested. ULK1 inhibition assays were performed in a 5 uL reaction volume containing 2 ug/mL recombinant human ULK1 protein (1-649, SignalChem #U01-11G) and 80 ug/mL myelin basic protein (MBP, Sigma-Aldrich #M1891) in the presence of 25 uM ATP (Sigma-Aldrich A7699). ULK 1 inhibition was assessed after one hour. Compounds were tested in triplicate in a 16-dose IC50 mode with 3-fold serial dilution and a starting dose of 30 uM. Staurosporine, a non-selective protein kinase inhibitor, was used in the assay as a positive control.
According to another embodiment, the present disclosure provides methods of producing the above-defined compounds. The compounds may be synthesized using any suitable techniques. Advantageously, these compounds are conveniently synthesized from readily available starting materials. Synthetic chemistry transformations and methodologies useful in synthesizing the compounds described herein are known in the art and include, for example, those described in R. Larock, Comprehensive Organic Transformations (1989); T. W. Greene and P. G. M. Wuts, Protective Groups in Organic Synthesis, 2d. Ed. (1991); L. Fieser and M. Fieser, Fieser and Fieser's Reagents for Organic Synthesis (1994); and L. Paquette, ed., Encyclopedia of Reagents for Organic Synthesis (1995).). In general, synthesis and measurements of ULK1 inhibitory activity of the compounds described herein was performed using method analogous to those previously described in PCT International Application No. PCT/US2015/046777 which is hereby incorporated by reference in its entirety.

Row | IC50 [nM] | Compound
1 | < 1 | N[C@@H](CC(=O)O)C(=O)N1CCc2cc(Nc3ncc(C(F)(F)F)c(NC4CC4)n3)ccc2C1 (racemic) [Compound A66]
2 | < 1 | O=C(O)C[C@H](NC(=O)OCc1ccccc1)C(=O)N1CCc2cc(Nc3ncc(C(F)(F)F)c(NC4CC4)n3)ccc2C1 (racemic) [Compound A67]
3 | > 10 | CNC(=O)c1ccccc1Nc1nc(Nc2ccc3c(c2)CCN(C(=O)[C@@H](N)CO)C3)ncc1Br (racemic) [Compound A139, 2-{2-[2-(2-Amino-3-hydroxy-propionyl)-1,2,3,4-tetrahydro-isoquinolin-6-ylamino]-5-bromo-pyrimidin-4-ylamino}-N-methyl-benzamide]
4 | > 10 | CNC(=O)c1ccccc1Nc1nc(Nc2ccc3c(c2)CN(C(=O)[C@@H](N)CO)CC3)ncc1Br (racemic) [Compound A154, 2-{2-[2-(2-Amino-3-hydroxy-propionyl)-1,2,3,4-tetrahydro-isoquinolin-7-ylamino]-5-bromo-pyrimidin-4-ylamino}-N-methyl-benzamide]
5 | < 1 | N[C@H](CO)C(=O)N1CCc2cc(Nc3ncc(C(F)(F)F)c(NC4CC4)n3)ccc2C1 (stereo in doubt) [Compound A48]
6 | 1 to 10 | N[C@@H](CO)C(=O)N1CCc2cc(Nc3ncc(C(F)(F)F)c(NC4CC4)n3)ccc2C1 (stereo in doubt) [Compound A57]
7 | < 1 | CN1CCc2cc(Nc3ncc(C(F)(F)F)c(NC4CC4)n3)ccc2C1 [Compound A1]
8 | 1 to 10 | O=C(N1CCOCC1)N1CCc2cc(Nc3ncc(C(F)(F)F)c(NC4CC4)n3)ccc2C1 [Compound A2]
9 | < 1 | FC(F)(F)c1cnc(Nc2ccc3c(c2)CCN(Cc2ccncc2)C3)nc1NC1CC1 [Compound A3]
10 | 1 to 10 | COC(=O)N1CCc2cc(Nc3ncc(C(F)(F)F)c(NC4CC4)n3)ccc2C1 [Compound A4]
11 | < 1 | FC(F)(F)c1cnc(Nc2ccc3c(c2)CCN(CCN2CCOCC2)C3)nc1NC1CC1 [Compound A5]
12 | 1 to 10 | CCNC(=O)N1CCc2cc(Nc3ncc(C(F)(F)F)c(NC4CC4)n3)ccc2C1 [Compound A6]
13 | < 1 | O=C(O)CCN1CCc2cc(Nc3ncc(C(F)(F)F)c(NC4CC4)n3)ccc2C1 [Compound A7]
14 | < 1 | FC(F)(F)c1cnc(Nc2ccc3c(c2)CCN(Cc2ccccc2)C3)nc1NC1CC1 [Compound A8]
15 | 1 to 10 | FC(F)(F)c1cnc(Nc2ccc3c(c2)CCN(C2COC2)C3)nc1NC1CC1 [Compound A9]
16 | 1 to 10 | CCN(CC)C(=O)N1CCc2cc(Nc3ncc(C(F)(F)F)c(NC4CC4)n3)ccc2C1 [Compound A10]
17 | < 1 | CSCCN1CCc2cc(Nc3ncc(C(F)(F)F)c(NC4CC4)n3)ccc2C1 [Compound A11]
18 | 1 to 10 | CS(=O)(=O)N1CCc2cc(Nc3ncc(C(F)(F)F)c(NC4CC4)n3)ccc2C1 [Compound A12]
19 | > 10 | OCC(O)CN1CCc2cc(Nc3ncc(C(F)(F)F)c(NC4CC4)n3)ccc2C1 (stereo not drawn) [Compound A13]
20 | 1 to 10 | NC(=O)N1CCc2cc(Nc3ncc(C(F)(F)F)c(NC4CC4)n3)ccc2C1 [Compound A14]

Row | IC50 [nM] | Compound
21 | 1 to 10 | CC(C)(C)OC(=O)N1CCc2ccc(Nc3ncc(C(F)(F)F)c(NC4CC4)n3)cc2C1 [Compound A15]
22 | < 1 | FC(F)(F)c1cnc(Nc2ccc3c(c2)CNCC3)nc1NC1CC1 [Compound A16]
23 | < 1 | FC(F)(F)c1cnc(Nc2ccc3c(c2)CCN(CC2OCCO2)C3)nc1NC1CC1 [Compound A17]
24 | < 1 | CC(C)(O)CN1CCc2cc(Nc3ncc(C(F)(F)F)c(NC4CC4)n3)ccc2C1 [Compound A18]
25 | < 1 | O=C(O)CCC(=O)N1CCc2cc(Nc3ncc(C(F)(F)F)c(NC4CC4)n3)ccc2C1 [Compound A20]
26 | > 10 | CC(C)(C)OC(=O)N1CCc2cc(Nc3ncc([N+](=O)O)c(NC4CC4)n3)ccc2C1 [Compound A21]
27 | > 10 | CC(C)(C)OC(=O)N1CCc2cc(Nc3ncc(N)c(NC4CC4)n3)ccc2C1 [Compound A22]
28 | < 1 | FC(F)(F)c1cnc(Nc2ccc3c(c2)CCN(CCS)C3)nc1NC1CC1 [Compound A23]
29 | > 10 | CNC(=S)Nc1cnc(Nc2ccc3c(c2)CCNC3)nc1NC1CC1 [Compound A24]
30 | < 1 | NS(=O)(=O)N1CCc2cc(Nc3ncc(C(F)(F)F)c(NC4CC4)n3)ccc2C1 [Compound A25]
31 | > 10 | NCC(=O)Nc1cnc(Nc2ccc3c(c2)CCNC3)nc1NC1CC1 [Compound A26]
32 | < 1 | NCC(=O)N1CCc2cc(Nc3ncc(C(F)(F)F)c(NC4CC4)n3)ccc2C1 [Compound A27]
33 | > 10 | CCOC(=O)c1cnc(Nc2ccc3c(c2)CCN(C(=O)OC(C)(C)C)C3)nc1NC1CC1 [Compound A28]
34 | < 1 | CC(C)(C)OC(=O)NCCC(=O)N1CCc2cc(Nc3ncc(C(F)(F)F)c(NC4CC4)n3)ccc2C1 [Compound A29]
35 | > 10 | CC(C)(C)OC(=O)N1CCc2cc(Nc3ncc(C(=O)O)c(NC4CC4)n3)ccc2C1 [Compound A30]
36 | < 1 | NCCC(=O)N1CCc2cc(Nc3ncc(C(F)(F)F)c(NC4CC4)n3)ccc2C1 [Compound A31]
37 | > 10 | O=C(OCCO)c1cnc(Nc2ccc3c(c2)CCNC3)nc1NC1CC1 [Compound A33]
38 | < 1 | NCCN1CCc2cc(Nc3ncc(C(F)(F)F)c(NC4CC4)n3)ccc2C1 [Compound A34]
39 | < 1 | CNCC(=O)N1CCc2cc(Nc3ncc(C(F)(F)F)c(NC4CC4)n3)ccc2C1 [Compound A35]
40 | > 10 | O=C(NCCO)c1cnc(Nc2ccc3c(c2)CCNC3)nc1NC1CC1 [Compound A36]

Row | IC50 [nM] | Compound
41 | < 1 | CN1CCN(C(=O)N2CCc3cc(Nc4ncc(C(F)(F)F)c(NC5CC5)n4)ccc3C2)CC1 [Compound A37]
42 | > 10 | O=C(NCC(F)(F)F)c1cnc(Nc2ccc3c(c2)CCNC3)nc1NC1CC1 [Compound A38]
43 | > 10 | NC(=O)CN1CCc2cc(Nc3ncc(C(F)(F)F)c(NC4CC4)n3)ccc2C1 [Compound A39]
44 | 1 to 10 | FC(F)(F)c1cnc(Nc2ccc3c(c2)CCN(CC2CCCN2)C3)nc1NC1CC1 (stereo not drawn) [Compound A40]
45 | < 1 | FC(F)(F)c1cnc(Nc2ccc3c(c2)CCN(CC2CNC2)C3)nc1NC1CC1 [Compound A41]
46 | < 1 | FC(F)(F)c1cnc(Nc2ccc3c(c2)CCN(Cc2cc[nH]c2)C3)nc1NC1CC1 [Compound A42]
47 | < 1 | FC(F)(F)c1cnc(Nc2ccc3c(c2)CCN(CC2CCNC2)C3)nc1NC1CC1 (stereo not drawn) [Compound A43]
48 | < 1 | CN(C)CCN1CCc2cc(Nc3ncc(C(F)(F)F)c(NC4CC4)n3)ccc2C1 [Compound A44]
49 | < 1 | N#CCN1CCc2cc(Nc3ncc(C(F)(F)F)c(NC4CC4)n3)ccc2C1 [Compound A45]
50 | < 1 | FC(F)(F)c1cnc(Nc2ccc3c(c2)CCN(Cc2ccco2)C3)nc1NC1CC1 [Compound A46]
51 | < 1 | FC(F)(F)c1cnc(Nc2ccc3c(c2)CCN(Cc2cncnc2)C3)nc1NC1CC1 [Compound A49]
52 | < 1 | COCCN1CCc2cc(Nc3ncc(C(F)(F)F)c(NC4CC4)n3)ccc2C1 [Compound A50]
53 | < 1 | FC(F)(F)c1cnc(Nc2ccc3c(c2)CCN(C2CNC2)C3)nc1NC1CC1 [Compound A52]
54 | < 1 | OCCN1CCc2cc(Nc3ncc(C(F)(F)F)c(NC4CC4)n3)ccc2C1 [Compound A53]
55 | 1 to 10 | CC(C)(C)OC(=O)C1Cc2ccc(Nc3ncc(C(F)(F)F)c(NC4CC4)n3)cc2C1 (stereo not drawn) [Compound A54]
56 | < 1 | CC(=O)CCN1CCc2cc(Nc3ncc(C(F)(F)F)c(NC4CC4)n3)ccc2C1 [Compound A56]
57 | < 1 | NC(=O)CCN1CCc2cc(Nc3ncc(C(F)(F)F)c(NC4CC4)n3)ccc2C1 [Compound A58]
58 | > 10 | Nc1cnc(Nc2ccc3c(c2)CCNC3)nc1NC1CC1 [Compound A59]
59 | 1 to 10 | CCN1CCc2cc(Nc3ncc(C(F)(F)F)c(NC4CC4)n3)ccc2C1 [Compound A60]
60 | > 10 | CN1CCc2cc(Nc3ncc(N)c(NC4CC4)n3)ccc2C1 [Compound A61]
